Measured values published in patent publication US6451853B1, “Small molecules that elicit a polarized Th1 response and for modulation of cellular immunity” (Dovetail Technologies, Inc, priority 1998, dated 2002).
“And” between values parts separate entries of the source, which are not always exact repeats. Identical values can stand only once.

What was measured:
[1] = air and aqueous solutions; cited from earlier work
[2] = system: surface TNF alpha on human T cells; assay: Surface TNF alpha expression on T cells by FACS (gating on CD3+ cells); settings: for surface TNF alpha, overall MFI: 20 mM NAC without or with 20 mM BT; for surface TNF alpha expression, Time Course: each drug 20 mM; for TNF alpha in T cells, % Total / TNF alpha in T cells, MFI: marker All
[3] = system: surface TNF alpha on human monocytes; assay: Surface TNF alpha expression on monocytes by FACS (CD14+ cells); assay type: cell-based; settings: all drugs 20 mM
Excerpt: The effect of NAC and BT, alone or in combination, on surface TNF alpha expression by stimulated or unstimulated monocytes (prepared from PBM) was examined. […] Table 6. While only a small proportion of T cells from each donor were responsive to the combination NAC/BT, the effect on surface TNF alpha expression in monocytes was significant.

[4] = system: soluble TNF alpha release from human lymphocytes; assay: Soluble TNF alpha in supernatants by ELISA; settings: Media (unstimulated); drugs 20 mM; ELISA standard curve in pg/mL, unit not given
[5] = system: Cytokine mRNA from T cells (PBMC); assay: RNase protection assay of cytokine mRNA in PBMC (T cells), with or without PMA/ionomycin; settings: 6 hours, unit not given
PBMC = assay: CD69 expression by flow cytometry, PBMC T cells; assay type: cell-based; settings: for CD69 Expression, MFI of 10,000 events: PBMC
Experimental: (§1) CD69 Expression. CD69 expression was assessed by flow cytometry as described previously. […] CD69 is one of the earliest stimulation markers expressed on T cells upon activation (Testi et al., 1994). The cross-linking of this marker is believed to generate extracellular Ca++ influxes and activate phospholipase A2, and thus it is believed to be an integral part of the activation process (Testi et al., 1994).

T cells = assay: Ca++ mobilization kinetics with fluo-3AM; assay type: cell-based; settings: final concentrations 0.14 mM to 1.4 mM; eight minute time period; data not shown
Experimental: The kinetics of Ca++ mobilization was observed using the dye fluo-3AM which is a membrane permeable Ca++ indicator which becomes increasingly fluorescent upon Ca++ binding. A baseline reading indicates the resting state of Ca++, followed by injection of Taurox-SB to yield final concentrations of 0.14 mM to 1.4 mM. […] PHA was added as a positive control for the elicitation of a Ca++ response (Greimers et al., 1996). […] (Data not shown.) The role of the second messenger response could be varied, as many proteins are activated by Ca++-regulated intracellular pathways. Second messengers may serve to enhance production of cytokines by immune cells.

Cloudman S-91 cells = assay: CTL lysis of Cloudman S-91 targets (CMFDA leakage); assay type: cell-based, DBA/2 mouse; settings: CTLs generated using 0.14 M Taurox-SB in addition to IL-6/IL-12; 10:1 effector:target, 16 hours
Experimental: The analysis was extended to include killing of the Cloudman S-91 targets used for the CTL generation. Cloudman S-91 cells (5×104) were loaded with chloromethylfluorescein diacetate (CMFDA) and incubated for 16 hours with CTLs generated from DBA/2 splenocytes at a 10:1 effector:target ratio. Lysis was detected by leakage of the CMFDA.

human PBMCs [6] = assay: PBMC proliferation by 3H-thymidine incorporation; assay type: cell-based
Experimental: Treatment with 0.14 mM Taurox-SB increased proliferation of human PBMCs with and without PHA, as detected by incorporation of 3H-thymidine (Table 18).
Human PBMCs are obtained through collection of peripheral blood and isolation over Ficoll 1077. The cells are counted and 5×10^5 cells are plated in triplicate in 96 well plates in 100 μl of media (RPMI 1640, 20% FBS) containing specified conditions. These cells are then allowed to incubate for 48 hours. After this incubation 1 μCi of ^3H-Thymidine is added in a […] volume. The plates are incubated an additional 24 hours and harvested on a Tomtec plate harvester and the filtermat read in a scintillation counter. Many studies have been performed using the drugs in combination with PHA (T cell stimulant (mitogen)) obtained from Sigma.

HUT-78 T cell line = assay: CD69 expression by flow cytometry, HUT-78; assay type: cell-based
Experimental: as §1

[7] = system: surface TNF alpha on human monocytes; assay: Surface TNF alpha expression on monocytes by FACS (CD14+ cells); assay type: cell-based; settings: for Monocyte TNF alpha surface expression, % Positive: fluorescence greater than isotype control peak
human PBMCs [8] = assay: Cell cycle analysis; assay type: cell-based; settings: 18 and 24 hours of exposure
MOLT-4 T cell line = assay: CD69 expression by flow cytometry, MOLT-4; assay type: cell-based
Experimental: as §1

[9] = With PMA + Ionomycin stimulation, 1.4 mM TSB, 16 hours
[10] = With PMA + Ionomycin stimulation, .14 mM TSB, 16 hours
[11] = Without stimulation, 1.4 mM TSB, 16 hours
[12] = Without stimulation, .14 mM TSB, 16 hours
[13] = Taurox-SB 14 nM, no stimulation
[14] = Taurox-SB 14 nM, with stimulation
[15] = Taurox-SB 1.4 uM, no stimulation
[16] = Taurox-SB 1.4 uM, with stimulation
[17] = Taurox-SB 1.4 mM, no stimulation
[18] = Taurox-SB 1.4 mM, with stimulation

In the case of `NCCC(=O)NCCS` [beta-aletheine], the stability [1] is listed as “unstable in air and aqueous solutions”.
In the case of `CC(=O)N[C@@H](CS)C(=O)O` [NAC, N-acetyl-L-cysteine, reference compound], the “surface TNF alpha, overall MFI” value ([2]; NAC + Stimulation (1 micromolar Ionomycin, 10 ng/ml PMA), individual donors) is reported as 25.32 and 31.12 and 95.45 and 53.48 and 17.39 and 12.59, the “surface TNF alpha, overall MFI” value ([2]; NAC + Stimulation with 1 ng PMA) is reported as 11.31 and 12.76 and the “surface TNF alpha expression, Time Course” value ([2]; Pma/iono, 6 hours) is reported as 82. For the same compound, the “surface TNF alpha expression, Time Course” value ([2]; Pma/iono, 16 hours) was 93, the “surface TNF alpha expression, Time Course” value ([2]; Pma/iono, 24 hours) was 101 and the “surface TNF alpha expression, Time Course” value ([2]; Pma/iono, 42 hours) was 113. For the same compound, the “surface TNF alpha expression, Time Course” value ([2]; Pma/iono, 68 hours) was 80, the “surface TNF alpha, overall MFI” value ([2]; no stimulation, individual donors) was 24.7 and 6.96 and 17.49 and 6.34 and 6.68 and the “surface TNF alpha expression, Time Course” value ([2]; unstimulated, 6 hours) was 20. The “surface TNF alpha expression, Time Course” value ([2]; unstimulated, 16 hours) was 33, the “surface TNF alpha expression, Time Course” value ([2]; unstimulated, 24 hours) was 39 and the “surface TNF alpha expression, Time Course” value ([2]; unstimulated, 42 hours) was 56. The “surface TNF alpha expression, Time Course” value ([2]; unstimulated, 68 hours) was 47, the “surface TNF alpha expression” value ([3]; stimulated monocytes) was “relative ineffectiveness” and the “surface TNF alpha expression” value ([3]; unstimulated monocytes) was “not upregulated”. The “Soluble TNF” value [4] was 15.
With `O=C(CCNC(=O)OCc1ccccc1)NCCS(=O)(=O)O` [Taurox-SB, carbobenzoxy beta-alanyl taurine] the “TNF alpha in T cells, % Total” value [2, 9] was 88.89%, the “TNF alpha in T cells, MFI” value [2, 9] was 85.04 and the “TNF alpha in T cells, % Total” value [2, 10] was 85.64%. The “TNF alpha in T cells, MFI” value [2, 10] was 169.68, the “TNF alpha in T cells, % Total” value [2, 11] was 72.09% and the “TNF alpha in T cells, MFI” value [2, 11] was 25.34. For the same compound, the “TNF alpha in T cells, % Total” value [2, 12] was 78.07%, the “TNF alpha in T cells, MFI” value [2, 12] was 20.18 and the “Effect on GAPDH message” value [5, 13] was −20.94. The “Effect on IFNg message” value [5, 13] was 21.53, the “Effect on Ltb message” value [5, 13] was 29.83 and the “Effect on TGFb1 message” value [5, 13] was 17.51. The “Effect on TNFa message” value [5, 13] was 2.10, the “Effect on TNFb message” value [5, 13] was 62.96 and the “Effect on GAPDH message” value [5, 14] was −8.10. The “Effect on IFNg message” value [5, 14] was −32.73, the “Effect on Ltb message” value [5, 14] was 12.29 and the “Effect on TGFb1 message” value [5, 14] was −10.25. For the same compound, the “Effect on TNFa message” value [5, 14] was −15.96, the “Effect on TNFb message” value [5, 14] was 22.72 and the “Effect on GAPDH message” value [5, 15] was −8.16. The “Effect on IFNg message” value [5, 15] was 16.76, the “Effect on Ltb message” value [5, 15] was 21.09 and the “Effect on TGFb1 message” value [5, 15] was 29.61. The “Effect on TNFa message” value [5, 15] was 21.27, the “Effect on TNFb message” value [5, 15] was 311.16 and the “Effect on GAPDH message” value [5, 16] was 4.88. For the same compound, the “Effect on IFNg message” value [5, 16] was −9.85, the “Effect on Ltb message” value [5, 16] was 2.92 and the “Effect on TGFb1 message” value [5, 16] was −0.09. For the same compound, the “Effect on TNFa message” value [5, 16] was 48.67, the “Effect on TNFb message” value [5, 16] was 4.18 and the “Effect on GAPDH message” value [5, 17] was 4.96 _. The “Effect on IFNg message” value [5, 17] was 388.08, the “Effect on Ltb message” value [5, 17] was 85.61 and the “Effect on TGFb1 message” value [5, 17] was 36.89. The “Effect on TNFa message” value [5, 17] was 461.93, the “Effect on TNFb message” value [5, 17] was 373.82 and the “Effect on GAPDH message” value [5, 18] was −38.75. For the same compound, the “Effect on IFNg message” value [5, 18] was −64.90, the “Effect on Ltb message” value [5, 18] was 234.28 and the “Effect on TGFb1 message” value [5, 18] was −25.88. The “Effect on TNFa message” value [5, 18] was −100.00, the “Effect on TNFb message” value [5, 18] was 20.95 and the “CD69 Expression, MFI of 10,000 events” value (PBMC; 1.4 mM) was 7. The “CD69 Expression, MFI of 10,000 events” value (PBMC; 14 mM) was 11, the CD69 expression (PBMC; T cells, concentrations less than 1.4 mM) was “without effect” and the “Ca++ mobilization” value (T cells) was “rising or sustained”. The “lysis of Cloudman S-91 targets” value (Cloudman S-91 cells) was 73%, the “PBMC Proliferation, mean cpm ± SD” value (human PBMCs [6]; 0.14 mM, No PHA) was 2964 ± 684 cpm and the “PBMC Proliferation, mean cpm ± SD” value (human PBMCs [6]; 0.14 mM, PHA 10 μg/ml) was 5538 ± 597 cpm. The viability (human PBMCs [6]; 1.4 mM) was “slight reduction in viability”, the “PBMC Proliferation, mean cpm ± SD” value (human PBMCs [6]; .014 mM, No PHA) was 1346 ± 70 cpm and the “PBMC Proliferation, mean cpm ± SD” value (human PBMCs [6]; .014 mM, PHA 10 μg/ml) was 4794 ± 652 cpm. For the same compound, the “CD69 Expression, MFI of 10,000 events” value (HUT-78 T cell line; HUT-78 + PHA, 1.4 mM) was 409, the “CD69 Expression, MFI of 10,000 events” value (HUT-78 T cell line; HUT-78, 1.4 mM) was 278 and the “Monocyte TNF alpha surface expression, % Positive” value ([7]; PMA/iono + Taurox-SB 1.4 mM) was 59% and 53% and 57% and 36%. The “Monocyte TNF alpha surface expression, % Positive” value ([7]; Taurox-SB 1.4 mM, no PMA/iono) was 9% and 3%, the “Monocyte TNF alpha surface expression, MFI” value ([7]; Taurox-SB 1.4 mM, no PMA/iono, separate experiments) was 19.91 and 16.68 and 10.95 and the cell cycle distribution (human PBMCs [8]) was “increase in the proportion of cells in G2/M”. The “CD69 Expression, MFI of 10,000 events” value (MOLT-4 T cell line; MOLT-4 + PHA, 1.4 mM) was 547 and the “CD69 Expression, MFI of 10,000 events” value (MOLT-4 T cell line; MOLT-4, 1.4 mM) was 208.
